Target: K-Ras4B1-166-GDP (Homo sapiens, UniProt P01116)
Experiment: Microscale thermophoresis
Format: binding
Details: MST; nucleotide state not given; pH 7.0, 0.05% TWEEN-20

Ac-KEKLNSKPGKKKKKKSKTK-NH2 [kR-4B-28]
interaction with K-Ras4B1-166 (in words): abolished the interaction

From PMC4699860 (Biophysical Journal, 2015)
